# From ChEMBL document CHEMBL4819104, “Discovery of 2-amino-3-amido-5-aryl-pyridines as highly potent, orally bioavailable, and efficacious PERK kinase inhibitors” (Bioorg Med Chem Lett, 2021)
# Columns and labels:
# [1] = target: T1, Eukaryotic translation initiation factor 2-alpha kinase 3 (Homo sapiens, UniProt Q9NZJ5); experiment: Inhibition of human His-tagged PERK expressed in Escherichia coli assessed as eIF2alpha phosphorylation by TR-FRET assay
# T1 sequence (Q9NZJ5 whole entry): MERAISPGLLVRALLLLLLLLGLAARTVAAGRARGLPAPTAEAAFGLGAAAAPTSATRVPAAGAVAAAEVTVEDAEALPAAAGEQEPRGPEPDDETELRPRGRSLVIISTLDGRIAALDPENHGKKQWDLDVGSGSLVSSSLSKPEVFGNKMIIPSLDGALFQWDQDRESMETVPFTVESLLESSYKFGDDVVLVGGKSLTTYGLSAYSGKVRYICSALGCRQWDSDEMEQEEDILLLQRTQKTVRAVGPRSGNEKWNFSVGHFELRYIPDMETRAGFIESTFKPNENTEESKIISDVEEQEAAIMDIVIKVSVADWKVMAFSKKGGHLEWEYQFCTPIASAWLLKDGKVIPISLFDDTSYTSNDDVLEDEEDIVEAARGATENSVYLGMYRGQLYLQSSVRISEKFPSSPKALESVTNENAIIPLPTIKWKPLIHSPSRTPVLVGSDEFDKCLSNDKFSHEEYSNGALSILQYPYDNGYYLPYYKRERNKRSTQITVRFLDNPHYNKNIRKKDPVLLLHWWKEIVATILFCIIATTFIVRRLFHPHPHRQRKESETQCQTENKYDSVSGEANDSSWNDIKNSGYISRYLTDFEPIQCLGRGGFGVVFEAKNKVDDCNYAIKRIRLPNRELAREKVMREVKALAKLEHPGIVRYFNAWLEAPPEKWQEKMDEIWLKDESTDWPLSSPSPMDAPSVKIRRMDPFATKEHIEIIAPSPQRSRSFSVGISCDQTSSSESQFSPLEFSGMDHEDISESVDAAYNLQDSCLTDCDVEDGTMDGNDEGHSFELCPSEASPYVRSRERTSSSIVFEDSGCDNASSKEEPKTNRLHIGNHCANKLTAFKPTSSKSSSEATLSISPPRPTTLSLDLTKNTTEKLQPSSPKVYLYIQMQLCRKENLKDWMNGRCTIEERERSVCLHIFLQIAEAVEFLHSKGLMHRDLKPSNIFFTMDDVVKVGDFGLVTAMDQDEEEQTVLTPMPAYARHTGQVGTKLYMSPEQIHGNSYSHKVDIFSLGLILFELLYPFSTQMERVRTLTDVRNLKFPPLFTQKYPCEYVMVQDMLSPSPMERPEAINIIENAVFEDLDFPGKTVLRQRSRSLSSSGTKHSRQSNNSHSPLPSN
# [2] = Aqueous solubility of the compound; assay type: physicochemical; details: buffer
# [3] = Apparent permeability of the compound across apical to basolateral side in human Caco-2 cells; assay type: ADME, cell-based; details: read-out: permeability
# [4] = Efflux ratio of apparent permeability in human Caco-2 cells; assay type: ADME, cell-based
# [5] = Plasma protein binding in human; assay type: ADME, cell-free; details: read-out: PPB (converted)
# [6] = Plasma protein binding in rat; assay type: ADME, cell-free; details: read-out: PPB (converted)
# [7] = Plasma protein binding in mouse; assay type: ADME, cell-free; details: read-out: PPB (converted)
# [8] = Plasma protein binding in dog; assay type: ADME, cell-free, Canis lupus familiaris; details: read-out: PPB (converted)
# [9] = Half life in human hepatocytes; assay type: ADME, cell-based, Hepatocyte
# [10] = Half life in rat hepatocytes; assay type: ADME, cell-based, Hepatocyte
# [11] = Half life in mouse hepatocytes; assay type: ADME, cell-based, Hepatocyte
# [12] = Half life in dog hepatocytes; assay type: ADME, cell-based, Canis lupus familiaris, Hepatocyte
compound,measurement,setting,value
CNc1ncc(-c2ccc(NC(=O)[C@H](O)c3cc(F)cc(F)c3)cc2C)cc1C(=O)NC(C)C,IC50,[1],0.129 µM
CO[C@@H](C(=O)Nc1ccc(-c2cnc(N)c(C(=O)NC(C)C)c2)c(C)c1)c1ccccc1,IC50,[1],> 1 µM
Cc1cc(NC(=O)Cc2ccccc2)ccc1-c1cnc(N)c(C(=O)NC(C)C)c1,IC50,[1],0.073 µM
CCc1cccc([C@@H](O)C(=O)Nc2ccc(-c3cnc(N)c(C(=O)NC(C)C)c3)c(C)c2)c1,IC50,[1],0.006 µM
Cc1cc(NC(=O)[C@@H](O)c2cc(F)cc(F)c2)ccc1-c1cnc(N)c(C(=O)NC(C)C)c1,IC50,[1],0.026 µM
Cc1cc(NC(=O)[C@H](O)c2ccccc2)ccc1-c1cnc(N)c(C(=O)NC(C)C)c1,IC50,[1],0.009 µM
Cc1cc(NC(=O)Oc2ccccc2)ccc1-c1cnc(N)c(C(=O)NC(C)C)c1,IC50,[1],> 1 µM
CC(C)NC(=O)c1cc(-c2ccc(NC(=O)[C@H](O)c3cc(F)cc(F)c3)cc2Cl)cnc1N,IC50,[1],0.009 µM
same,solubility,[2],13 µM
same,Papp A→B,[3],240 nm/s
same,efflux ratio,[4],2.5
same,fraction unbound,[5],0.003
same,fraction unbound,[6],0.007
same,fraction unbound,[7],0.005
same,fraction unbound,[8],0.005
same,half-life,[9],9.48 h
same,half-life,[10],0.2 h
same,half-life,[11],0.4 h
same,half-life,[12],7.18 h
Cc1cc(NC(=O)[C@H](O)c2cc(F)cc(F)c2)ccc1-c1cnc(C)c(C(=O)NC(C)C)c1,IC50,[1],0.068 µM
Cc1cc(NC(=O)[C@H](O)c2cc(F)cc(F)c2)ccc1-c1cncc(C(=O)NC(C)C)c1,IC50,[1],0.027 µM
CNC(=O)c1cc(-c2ccc(NC(=O)[C@H](O)c3cc(F)cc(F)c3)cc2C)cnc1N,IC50,[1],0.014 µM
Cc1cc(NC(=O)[C@H](O)c2cc(F)cc(F)c2)ccc1-c1cnc(N)c(C(=O)NC2CC2)c1,IC50,[1],0.003 µM
same,solubility,[2],37 µM
same,Papp A→B,[3],140 nm/s
same,efflux ratio,[4],4.6
same,fraction unbound,[5],0.024
same,fraction unbound,[6],0.028
same,fraction unbound,[7],0.028
same,fraction unbound,[8],0.029
same,half-life,[9],7.92 h
same,half-life,[10],2.18 h
same,half-life,[11],0.8 h
same,half-life,[12],> 16.7 h
CC(C)NC(=O)c1cc(-c2ccc(NC(=O)[C@H](O)c3cc(F)cc(F)c3)cc2F)cnc1N,IC50,[1],0.017 µM
CC(C)NC(=O)c1cc(-c2ccc(NC(=O)[C@H](O)c3cc(F)cc(F)c3)cc2)cnc1N,IC50,[1],0.023 µM
Cc1cc(NC(=O)[C@H](O)c2cc(F)cc(F)c2)ccc1-c1cc(C(=O)NC(C)C)c(N)nn1,IC50,[1],> 1 µM
Cc1cccc([C@@H](O)C(=O)Nc2ccc(-c3cnc(N)c(C(=O)NC(C)C)c3)c(C)c2)c1,IC50,[1],0.003 µM
Cc1cc(NC(=O)C(O)c2cc(F)cc(F)c2)ccc1-c1cnc(N)c(C(=O)O)c1 (centres undefined),IC50,[1],0.241 µM
Cc1cc(NC(=O)[C@H](O)c2cc(F)cc(F)c2)ccc1-c1cnc(N)c(C(=O)NC(C)(C)C)c1,IC50,[1],0.033 µM
Cc1cc(NC(=O)Nc2ccccc2)ccc1-c1cnc(N)c(C(=O)NC(C)C)c1,IC50,[1],1.35 µM
Cc1cc(NC(=O)[C@H](N)c2ccccc2)ccc1-c1cnc(N)c(C(=O)NC(C)C)c1,IC50,[1],1.46 µM
CNC(=O)c1nc(-c2ccc(NC(=O)[C@H](O)c3cc(F)cc(F)c3)cc2C)cnc1N,IC50,[1],0.008 µM
Cc1cc(NC(=O)[C@H](O)c2cc(F)cc(F)c2)ccc1-c1cnc(N)c(C(=O)OC(C)C)c1,IC50,[1],0.019 µM
COc1cc(NC(=O)[C@H](O)c2cc(F)cc(F)c2)ccc1-c1cnc(N)c(C(=O)NC(C)C)c1,IC50,[1],0.085 µM
Cc1cc(NC(=O)[C@H](O)c2cc(F)cc(F)c2)ccc1-c1cnc(N)c(C(=O)N(C)C)c1,IC50,[1],0.599 µM
Cc1cc(NC(=O)[C@@](C)(O)c2ccccc2)ccc1-c1cnc(N)c(C(=O)NC(C)C)c1,IC50,[1],0.159 µM
Cc1cc(NC(=O)[C@H](O)c2cc(F)cc(F)c2)ccc1-c1cnc(N)c(C(=O)NC(C)C)n1,IC50,[1],0.005 µM
CCNC(=O)c1cc(-c2ccc(NC(=O)[C@H](O)c3cc(F)cc(F)c3)cc2C)cnc1N,IC50,[1],0.004 µM
same,solubility,[2],48 µM
same,Papp A→B,[3],140 nm/s
same,efflux ratio,[4],3.3
same,fraction unbound,[5],0.019
same,fraction unbound,[6],0.033
same,fraction unbound,[7],0.028
same,fraction unbound,[8],0.029
same,half-life,[9],1.97 h
same,half-life,[10],0.567 h
same,half-life,[11],1.15 h
same,half-life,[12],14.6 h
Cc1cc(NC(=O)[C@](C)(O)c2ccccc2)ccc1-c1cnc(N)c(C(=O)NC(C)C)c1,IC50,[1],0.13 µM
Cc1cc(NC(=O)[C@H](O)c2cc(F)cc(F)c2)ccc1-c1ccc(N)nc1,IC50,[1],0.075 µM
Cc1cc(NC(=O)[C@H](O)c2cccc(Cl)c2)ccc1-c1cnc(N)c(C(=O)NC(C)C)c1,IC50,[1],0.003 µM
same,solubility,[2],13 µM
same,Papp A→B,[3],220 nm/s
same,efflux ratio,[4],2.8
same,fraction unbound,[5],0.004
same,fraction unbound,[6],0.013
same,fraction unbound,[7],0.006
same,fraction unbound,[8],0.006
same,half-life,[9],4.32 h
same,half-life,[10],0.2 h
same,half-life,[11],0.783 h
same,half-life,[12],3.73 h
